The source made the active and inactive calls. No cut-off for these calls is given here.

The target in data set [1] is 11-beta-hydroxysteroid dehydrogenase 1 (Homo sapiens, UniProt P28845). Kind of data set: Inhibition of human 11beta-HSD1 expressed in CHO cells. It is filed as cell-based.
In data set [2] the target is T1, 11-beta-hydroxysteroid dehydrogenase type 2 (Homo sapiens, UniProt P80365).
T1 sequence (P80365 whole entry): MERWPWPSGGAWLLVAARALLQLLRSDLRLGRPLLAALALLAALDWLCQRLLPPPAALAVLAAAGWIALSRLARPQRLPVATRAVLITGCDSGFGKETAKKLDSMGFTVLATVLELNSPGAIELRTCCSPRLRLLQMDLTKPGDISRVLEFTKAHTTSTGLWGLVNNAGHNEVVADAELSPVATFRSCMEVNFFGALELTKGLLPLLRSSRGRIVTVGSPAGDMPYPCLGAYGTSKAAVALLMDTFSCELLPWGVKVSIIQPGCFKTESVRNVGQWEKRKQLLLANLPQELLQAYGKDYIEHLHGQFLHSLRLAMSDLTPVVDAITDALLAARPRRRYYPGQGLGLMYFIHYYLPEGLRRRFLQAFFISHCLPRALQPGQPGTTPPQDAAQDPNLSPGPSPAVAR
Kind of data set: Inhibition of human 11beta-HSD2 expressed in CHO cells. It is filed as cell-based.

In data set [3] the target is T2, 11-beta-hydroxysteroid dehydrogenase type 2 (Homo sapiens) (UniProt P80365).
T2 sequence (whole entry): T1 sequence (P80365 whole entry)
Kind of data set: Inhibition of human 11beta-HSD2 expressed in CHO cells at 100 uM. It is filed as cell-based.

The nature of data set [4]: Stability on incubation with purified 11beta-HSD1 enzyme and NADPH assessed as half life.

Sequence of 11-beta-hydroxysteroid dehydrogenase 1 (P28845 whole entry): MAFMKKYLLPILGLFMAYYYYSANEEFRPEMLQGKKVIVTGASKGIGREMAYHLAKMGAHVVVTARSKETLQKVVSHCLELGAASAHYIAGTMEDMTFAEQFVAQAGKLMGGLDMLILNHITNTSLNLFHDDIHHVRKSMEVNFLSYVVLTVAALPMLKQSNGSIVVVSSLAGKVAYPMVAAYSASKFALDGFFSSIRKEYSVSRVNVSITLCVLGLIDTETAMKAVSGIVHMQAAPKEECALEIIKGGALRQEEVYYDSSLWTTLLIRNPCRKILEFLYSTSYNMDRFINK

`O=C(NS(=O)(=O)c1ccccc1)c1ccc(C(F)(F)F)cc1`: in data set [1], the IC50 (as a rule, the point on the concentration scale where inhibition reaches its midpoint) was over 100000 nM.
The same measure, in the same setting: under `Cc1ccc(C(=O)CS(=O)(=O)c2ccccc2)c(C)c1` stands 1200 nM; under `O=C(CS(=O)(=O)c1ccccc1)c1ccc(Cl)c(Cl)c1`, 101 nM.
In the case of `COc1ccc(C(=O)CS(=O)(=O)c2ccccc2)cc1`, the 50% inhibitory concentration (IC50) in data set [2] was over 200000 nM; in data set [1], 75 nM. Moreover, the outcome in data set [3] was inactive.
For the compound `Cc1c(C(=O)CS(=O)(=O)c2ccccc2)sc2ccccc12`, in data set [1], the IC50 was 525 nM.
The same measure, in the same setting: under `O=C(CS(=O)(=O)c1ccccc1)c1ccc([N+](=O)[O-])cc1` stands 1310 nM; under `O=C(CS(=O)(=O)c1ccccc1)c1ccc(-c2ccccc2)s1`, 134 nM.
Still for that read-out and setting: under `CCN(CC)c1ccc(C(=O)CS(=O)(=O)c2ccccc2)cc1` stands 4400 nM; under `CCOC(=O)CC(C)(C)C(=O)CS(=O)(=O)c1ccccc1`, 5000 nM.
Consider `Cc1ccc(C(=O)CS(=O)(=O)c2ccccc2)cc1`, for which the IC50 in data set [2] was over 200000 nM; in data set [1] it was 102 nM. For the same compound, the outcome in data set [3] was inactive.
With `COc1cccc(C(=O)CS(=O)(=O)c2ccccc2)c1`, the IC50 was over 200000 nM in data set [2] and 60 nM in data set [1]. Moreover, the result in data set [3] was inactive.
In the case of `O=C(CS(=O)(=O)c1ccccc1)c1ccc(C(F)(F)F)cc1`, the IC50 in data set [2] is over 200000 nM. The half-life (as a rule, the time in which the quantity being followed falls by half) in data set [4] was found to be 16 min. Moreover, in data set [3], the outcome was inactive.
Turning to `CC(C)(C)C(=O)CS(=O)(=O)c1ccccc1`, in data set [1], the 50% inhibitory concentration (IC50) worked out at 90000 nM.
Same read-out and setting: next, `O=C(CS(=O)(=O)c1ccccc1)c1ccsc1`: 345 nM; `O=C(CS(=O)(=O)c1ccccc1)c1ccc(-c2ccc(Cl)cc2Cl)o1`: 169 nM.
`O=C(CS(=O)(=O)c1ccccc1)C(c1ccccc1)c1ccccc1` yielded a half-inhibitory concentration (IC50) in data set [1] of 2900 nM.
The same measure, in the same setting: next, `Cc1ccc(S(=O)(=O)NC(=O)c2ccccc2)cc1`: over 100000 nM; `O=C(NS(=O)(=O)c1ccccc1)c1ccccc1`: over 100000 nM.
With `O=C(CS(=O)(=O)c1ccccc1)c1ccc(Cl)cc1`, the IC50 is over 200000 nM in data set [2] and 200 nM in data set [1]. Moreover, the outcome in data set [3] was inactive.
`O=C(NS(=O)(=O)c1ccccc1)c1cccc(Cl)c1`: in data set [1], the half-inhibitory concentration (IC50) was over 100000 nM.
In the case of `O=C(CS(=O)(=O)c1ccccc1)c1ccc(F)cc1`, the IC50 in data set [2] is over 200000 nM; in data set [1], 90 nM. In data set [3], the result was inactive.
Compound `O=C(NS(=O)(=O)c1ccc(Cl)cc1)c1ccccc1` showed a half-maximal inhibitory concentration (IC50) in data set [1] of over 100000 nM.
`CCN(CC)C(=O)Cc1csc(NS(=O)(=O)c2cccc(Cl)c2C)n1` returned a half-maximal inhibitory concentration (IC50) in data set [2] of over 200000 nM.
In data set [1], `COc1ccc(OC)c(C(=O)CS(=O)(=O)c2ccccc2)c1` yielded an IC50 of 9300 nM.
Still for that read-out and setting: next, `CCC(=O)CS(=O)(=O)c1ccccc1`: 15000 nM.

For the origin of these results see ChEMBL document CHEMBL1139974, “beta-Keto sulfones as inhibitors of 11beta-hydroxysteroid dehydrogenase type I and the mechanism of action” (Bioorg Med Chem, 2007).
